Assay results reported in PMC11049977, “Antenna-Biased Odorant Receptor PstrOR17 Mediates Attraction of Phyllotreta striolata to (S)-Cis-Verbenol and (−)-Verbenone” (International Journal of Molecular Sciences, 2024).

Target: T1, PstrOR17 (Phyllotreta striolata, UniProt A0A9N9TEW2)
T1 construct: gene PHYEVI_LOCUS1381; full-length ORF (1182 bp, 393 residues) from antennal cDNA in pUAST.attb; expressed in Drosophila melanogaster ab3A empty neurons under DmelOR22-Gal4; endogenous fly Orco not mentioned for the assay; with Odorant receptor coreceptor (Drosophila melanogaster, endogenous in the ab3A neuron)
T1 sequence (A0A9N9TEW2 1-393): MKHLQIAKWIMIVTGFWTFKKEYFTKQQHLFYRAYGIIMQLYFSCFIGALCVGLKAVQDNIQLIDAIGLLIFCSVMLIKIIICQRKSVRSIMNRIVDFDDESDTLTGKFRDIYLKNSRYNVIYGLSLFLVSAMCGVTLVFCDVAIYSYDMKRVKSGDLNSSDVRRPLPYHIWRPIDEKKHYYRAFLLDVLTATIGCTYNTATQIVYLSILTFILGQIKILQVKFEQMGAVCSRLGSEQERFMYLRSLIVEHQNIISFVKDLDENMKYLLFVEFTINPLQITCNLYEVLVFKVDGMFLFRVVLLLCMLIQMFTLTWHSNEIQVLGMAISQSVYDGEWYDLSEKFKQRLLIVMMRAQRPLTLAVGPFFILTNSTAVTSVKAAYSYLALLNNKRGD
T1 sequence (Q9VNB5 1-486 partner): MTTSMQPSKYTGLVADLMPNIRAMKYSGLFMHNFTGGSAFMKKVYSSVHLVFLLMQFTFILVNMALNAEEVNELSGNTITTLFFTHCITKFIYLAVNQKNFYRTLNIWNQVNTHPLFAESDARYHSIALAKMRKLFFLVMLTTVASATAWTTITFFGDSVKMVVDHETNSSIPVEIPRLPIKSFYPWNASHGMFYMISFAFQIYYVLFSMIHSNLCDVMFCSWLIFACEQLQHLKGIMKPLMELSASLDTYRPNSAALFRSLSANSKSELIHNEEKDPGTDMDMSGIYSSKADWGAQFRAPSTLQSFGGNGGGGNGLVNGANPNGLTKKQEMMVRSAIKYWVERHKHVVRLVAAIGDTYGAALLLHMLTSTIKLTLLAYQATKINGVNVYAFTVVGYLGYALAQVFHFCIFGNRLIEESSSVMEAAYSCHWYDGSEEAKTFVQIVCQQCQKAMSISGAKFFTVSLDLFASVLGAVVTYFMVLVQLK
Assay: single sensillum recording, Drosophila empty neuron (ab3A)
Assay type: cell-based
Details: agonist, odour cartridge 10 μL on filter strip

[1] = 10 μg/μL for profile, dose series 10^-5 to 10 mg/mL

CC1=CC(=O)[C@H]2C[C@@H]1C2(C)C [(−)-verbenone]
single sensillum recording, Drosophila empty neuron (ab3A) [1]: PstrOR17 responded to both (−)-verbenone and (S)-cis-verbenol in a dose-dependent manner

C=C1CC[C@H]2C[C@@H]1C2(C)C [(−)-β-pinene]
single sensillum recording, Drosophila empty neuron (ab3A) (10 μg/μL): moderate responses to five other odorants: α-pinene; (−)-β-pinene

CC1=CCC(C(C)C)=CC1 [γ-terpinene]
single sensillum recording, Drosophila empty neuron (ab3A) (10 μg/μL): moderate responses to five other odorants: α-pinene; (−)-β-pinene; γ-terpinene

CC1=CCC2CC1C2(C)C (stereo not drawn) [α-pinene]
single sensillum recording, Drosophila empty neuron (ab3A) (10 μg/μL): PstrOR17 also conferred moderate responses to five other odorants: α-pinene

CC1=C[C@H](O)[C@H]2C[C@@H]1C2(C)C [(S)-cis-verbenol]
single sensillum recording, Drosophila empty neuron (ab3A) [1]: PstrOR17 responded to both (−)-verbenone and (S)-cis-verbenol in a dose-dependent manner
